Measured values taken from patent publication US9138436B2, “Inhibitors of Bruton's tyrosine kinase” (PHARMACYCLICS LLC, priority 2011, dated 2015).

Target: Btk (Homo sapiens, UniProt Q06187)
Experiment: Btk in vitro inhibitory activity, acellular kinase assay (TR-FRET)
Format: biochemical
Description: Btk kinase activity is determined using a time-resolved fluorescence resonance energy transfer (TR-FRET) methodology. Measurements are performed in a reaction volume of 50 μL using 96-well assay plates. Kinase enzyme, inhibitor, ATP (at the Km for the kinase), and 1 μM peptide substrate (Biotin-AVLESEEELYSSARQ-NH2) are incubated in a reaction buffer composed of 20 mM Tris, 50 mM NaCl, MgCl2 (5-25 mM depending on the kinase), MnCl2 (0-10 mM), 1 mM DTT, 0.1 mM EDTA, 0.01% bovine serum albumin, 0.005% Tween-20, and 10% DMSO at pH 7.4 for one hour. The reaction is quenched by the addition of 1.2 equivalents of EDTA (relative to divalent cation) in 25 μL of 1× Lance buffer (Perkin-Elmer). Streptavidin-APC (Perkin-Elmer) and Eu-labeled p-Tyr100 antibody (Perkin-Elmer) in 1× Lance buffer are added in a 25 μL volume to give final concentrations of 100 nM and 2.5 nM, respectively, and the mixture is allowed to incubate for one hour. The TR-FRET signal is measured on a multimode plate reader with an excitation wavelength (λEx) of 330 nm and detection wavelengths (λEm) of 615 and 665 nm. Activity is determined by the ratio of the fluorescence at 665 nm to that at 615 nm. For each compound, enzyme activity is measured at various concentrations of compound. Negative control reactions are performed in the absence of inhibitor in replicates of six, and two no-enzyme controls were used to determine baseline fluorescence levels. Inhibition constants, Ki(app), are obtained using the program BatchKi (Kuzmic et al. (2000), Anal. Biochem. 286:45-50). IC50s are obtained according to the equation: IC50={Ki(app)/(1+[ATP]/Km^ATP)}+[E]total/2;
For all kinases, [ATP]=Km^ATP, [Btk]total=0.5 nM and [Lck]total=6 nM.

Chain of Btk (Q06187 whole entry): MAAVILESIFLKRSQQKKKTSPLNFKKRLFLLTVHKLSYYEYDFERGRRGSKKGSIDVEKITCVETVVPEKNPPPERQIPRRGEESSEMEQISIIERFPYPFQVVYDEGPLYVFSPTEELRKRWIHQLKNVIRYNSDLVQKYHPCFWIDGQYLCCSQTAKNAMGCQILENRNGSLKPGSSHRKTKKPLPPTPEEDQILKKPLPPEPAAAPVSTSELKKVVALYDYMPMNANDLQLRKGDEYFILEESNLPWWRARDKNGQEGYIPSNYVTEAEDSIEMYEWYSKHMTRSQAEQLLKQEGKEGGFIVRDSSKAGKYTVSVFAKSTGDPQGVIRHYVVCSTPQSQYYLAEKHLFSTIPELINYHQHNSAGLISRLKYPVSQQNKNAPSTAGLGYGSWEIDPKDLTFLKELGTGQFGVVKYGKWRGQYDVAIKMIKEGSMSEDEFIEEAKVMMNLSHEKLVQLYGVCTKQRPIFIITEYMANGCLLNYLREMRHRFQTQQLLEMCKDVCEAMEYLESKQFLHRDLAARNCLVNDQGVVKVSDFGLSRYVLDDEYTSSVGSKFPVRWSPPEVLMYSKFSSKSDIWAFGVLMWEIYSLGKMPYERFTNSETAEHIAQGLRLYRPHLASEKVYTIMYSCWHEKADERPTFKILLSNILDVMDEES

IC50, < 100 nM:
Nc1ncnc2c1c(-c1ccc(Oc3ccccc3)cc1)nn2[C@@H]1CCN(C(=O)/C=C/CN[C@H]2CCOC2)C1 [Example 2e, (E)-1-((R)-3-(4-amino-3-(4-phenoxyphenyl)-1H-pyrazolo[3,4-d]pyrimidin-1-yl)pyrrolidin-1-yl)-4-((S)-tetrahydrofuran-3-ylamino)but-2-en-1-one]
CN1CCC(NC/C=C/C(=O)N2CC[C@@H](n3nc(-c4ccc(Oc5ccccc5)cc4)c4c(N)ncnc43)C2)CC1 [Example 2ad, (R,E)-1-(3-(4-amino-3-(4-phenoxyphenyl)-1H-pyrazolo[3,4-d]pyrimidin-1-yl)pyrrolidin-1-yl)-4-(1-methylpiperidin-4-ylamino)but-2-en-1-one]
CN(C/C=C/C(=O)N1CC[C@@H](n2nc(-c3ccc(Oc4ccccc4)cc3)c3c(N)ncnc32)C1)[C@@H]1CCOC1 [Example 2b, (E)-1-((R)-3-(4-amino-3-(4-phenoxyphenyl)-1H-pyrazolo[3,4-d]pyrimidin-1-yl)pyrrolidin-1-yl)-4-(methyl((R)-tetrahydrofuran-3-yl)amino)but-2-en-1-one]
Nc1ncnc2c1c(-c1ccc(Oc3ccccc3)cc1)nn2[C@@H]1CCCN(C(=O)/C=C/CNC2CCCC2)C1 [Example 2aj, (R,E)-1-(3-(4-amino-3-(4-phenoxyphenyl)-1H-pyrazolo[3,4-d]pyrimidin-1-yl)piperidin-1-yl)-4-(cyclopentylamino)but-2-en-1-one]
Nc1ncnc2c1c(-c1ccc(Oc3ccccc3)cc1)nn2[C@@H]1CCCN(C(=O)/C=C/CNc2ccccn2)C1 [Example 1u, (R,E)-1-(3-(4-amino-3-(4-phenoxyphenyl)-1H-pyrazolo[3,4-d]pyrimidin-1-yl)piperidin-1-yl)-4-(pyridin-2-ylamino)but-2-en-1-one]
CN(C/C=C/C(=O)N1CCC[C@@H](n2nc(-c3ccc(Oc4ccccc4)cc3)c3c(N)ncnc32)C1)C1CCCCC1 [Example 2ag, (R,E)-1-(3-(4-amino-3-(4-phenoxyphenyl)-1H-pyrazolo[3,4-d]pyrimidin-1-yl)piperidin-1-yl)-4-(cyclohexyl(methyl)amino)but-2-en-1-one]
CC(C)N(C/C=C/C(=O)N1CC[C@@H](n2nc(-c3ccc(Oc4ccccc4)cc3)c3c(N)ncnc32)C1)C1CC1 [Example 2q, (R,E)-1-(3-(4-amino-3-(4-phenoxyphenyl)-1H-pyrazolo[3,4-d]pyrimidin-1-yl)pyrrolidin-1-yl)-4-(cyclopropyl(isopropyl)amino)but-2-en-1-one]
CN(C/C=C/C(=O)N1CC[C@@H](n2nc(-c3ccc(Oc4cccc(F)c4)cc3)c3c(N)ncnc32)C1)C1CC1 [Example 4c, (R,E)-1-(3-(4-amino-3-(4-(3-fluorophenoxy)phenyl)-1H-pyrazolo[3,4-d]pyrimidin-1-yl)pyrrolidin-1-yl)-4-(cyclopropyl(methyl)amino)but-2-en-1-one]
Nc1ncnc2c1c(-c1ccc(Oc3ccccc3)cc1)nn2[C@@H]1CCCN(C(=O)/C=C/CN(C2CC2)C2CC2)C1 [Example 2r, (R,E)-1-(3-(4-amino-3-(4-phenoxyphenyl)-1H-pyrazolo[3,4-d]pyrimidin-1-yl)piperidin-1-yl)-4-(dicyclopropylamino)but-2-en-1-one]
Nc1ncnc2c1c(-c1ccc(Oc3ccccc3)cc1)nn2[C@@H]1CCN(C(=O)/C=C/CN(C2CC2)C2CC2)C1 [Example 2a, (R,E)-1-(3-(4-amino-3-(4-phenoxyphenyl)-1H-pyrazolo[3,4-d]pyrimidin-1-yl)pyrrolidin-1-yl)-4-(dicyclopropylamino)but-2-en-1-one]
CN(C/C=C/C(=O)N1CC[C@@H](n2nc(-c3ccc(Oc4ccccc4)cc3)c3c(N)ncnc32)C1)c1ccccn1 [Example 1r, (R,E)-1-(3-(4-amino-3-(4-phenoxyphenyl)-1H-pyrazolo[3,4-d]pyrimidin-1-yl)pyrrolidin-1-yl)-4-(methyl(pyridin-2-yl)amino)but-2-en-1-one]
Nc1ncnc2c1c(-c1ccc(Oc3ccccc3)cc1)nn2[C@@H]1CCN(C(=O)/C=C/CNC2CCC2)C1 [Example 2ab, (R,E)-1-(3-(4-amino-3-(4-phenoxyphenyl)-1H-pyrazolo[3,4-d]pyrimidin-1-yl)pyrrolidin-1-yl)-4-(cyclobutylamino)but-2-en-1-one]
Nc1ncnc2c1c(-c1ccc(Oc3ccccc3)cc1)nn2[C@@H]1CCN(C(=O)/C=C/CNC2CCCCC2)C1 [Example 2x, (R,E)-1-(3-(4-amino-3-(4-phenoxyphenyl)-1H-pyrazolo[3,4-d]pyrimidin-1-yl)pyrrolidin-1-yl)-4-(cyclohexylamino)but-2-en-1-one]
